Among the data in patent publication US11104674B2 (Hoffmann-La Roche Inc., priority 2016, dated 2021) are IC50 values, retold here.

Each structure is given as a SMILES string.

One assay concerns HBsAg. The assay is described as follows: HBsAg assay (chemiluminescence immunoassay of secreted HBsAg). In kind it is cell-based, HBV. Particulars: HBsAg secretion, HepG2.2.15 cells, CLIA of culture supernatant. The essentials: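 HepG2.2.15 cells, in duplicate, treated with three-fold serial compound dilutions (1% DMSO final); secreted HBsAg in supernatant quantified by chemiluminescence immunoassay; IC50 is the concentration reducing HBsAg secretion by 50% versus the DMSO control.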
Usually IC50 stands for the concentration that gives 50% inhibition. A higher IC50 goes with a need for much substance. `CC1c2cnc(-c3ncccn3)nc2CCN1c1cc(N2CCN(S(C)(=O)=O)CC2)cc(F)n1` (single isomer, unassigned) [Example 98, (+)-6-[6-Fluoro-4-(4-methylsulfonylpiperazin-1-yl)-2-pyridyl]-5-methyl-2-pyrimidin-2-yl-7,8-dihydro-5H-pyrido[4,3-d]pyrimidine]: the concentration for half-maximal inhibition (IC50) was determined as 410 nM.

The assay is the same for the next values; noted with them: Hepatitis B virus, HepG2.2.15, HBsAg secretion, HepG2.2.15 cells, CLIA of culture supernatant.
With `CC1c2cnc(-c3ncccn3)nc2CCN1c1cc(N2CC(C(=O)O)CC2=O)cc(F)n1` (stereo not drawn) [Example 145, 1-[2-Fluoro-6-(5-methyl-2-pyrimidin-2-yl-7,8-dihydro-5H-pyrido[4,3-d]pyrimidin-6-yl)-4-pyridyl]-5-oxo-pyrrolidine-3-carboxylic acid], the 50% inhibitory concentration (IC50) was 5340 nM.

In turn, `CC1CN(c2cc(F)cc(N3CCc4nc(-c5ncccn5)ncc4C3C)n2)CC(=O)N1` (stereo not drawn) [Example 133, 4-[4-fluoro-6-(5-methyl-2-pyrimidin-2-yl-7,8-dihydro-5H-pyrido[4,3-d]pyrimidin-6-yl)-2-pyridyl]-6-methyl-piperazin-2-one] yielded a concentration for half-maximal inhibition (IC50) of 9 nM.

On to `CC1c2cnc(-c3ncccn3)nc2CCN1c1cc(N2CCCCS2(=O)=O)cc(F)n1` (stereo not drawn) [Example 162, 2-[2-Fluoro-6-(5-methyl-2-pyrimidin-2-yl-7,8-dihydro-5H-pyrido[4,3-d]pyrimidin-6-yl)-4-pyridyl]thiazinane1,1-dioxide], for which the IC50 was 15 nM.

Turning to `COCC1CN(c2cc(F)nc(N3CCc4nc(-c5ncccn5)ncc4C3C)c2)CCO1` (stereo not drawn) [Example 14, 4-[2-fluoro-6-(5-methyl-2-pyrimidin-2-yl-7,8-dihydro-5H-pyrido[4,3-d]pyrimidin-6-yl)-4-pyridyl]-2-(methoxymethyl)morpholine], the midpoint of inhibition, the IC50, lay at 17 nM.

Take `CC1c2cnc(-c3ncccn3)nc2CCN1c1cc(F)cc(N2CC(NS(C)(=O)=O)C2)n1` (stereo not drawn) [Example 118, N-[1-[4-fluoro-6-(5-methyl-2-pyrimidin-2-yl-7,8-dihydro-5H-pyrido[4,3-d]pyrimidin-6-yl)-2-pyridyl]azetidin-3-yl]methanesulfonamide]: the IC50 is 94 nM.

On to `CC1c2cnc(-c3ncccn3)nc2CCN1c1cc(NC(=O)CO)cc(F)n1` (stereo not drawn) [Example 3, N-[2-Fluoro-6-(5-methyl-2-pyrimidin-2-yl-7,8-dihydro-5H-pyrido[4,3-d]pyrimidin-6-yl)-4-pyridyl]-2-hydroxy-acetamide], for which inhibition was half-maximal at 60 nM (IC50).

For the compound `CC1c2cnc(-c3ncccn3)nc2CCN1c1cc(F)cc(N2CCC(C(=O)O)CC2)n1` (stereo not drawn) [Example 51, 1-[4-fluoro-6-(5-methyl-2-pyrimidin-2-yl-7,8-dihydro-5H-pyrido[4,3-d]pyrimidin-6-yl)-2-pyridyl]piperidine-4-carboxylic acid], the IC50 came out at 346 nM.

Take `CC1c2cnc(-c3ncccn3)nc2CCN1c1cc(F)nc(N2CCC2)c1` (stereo not drawn) [Example 147, 6-[2-(Azetidin-1-yl)-6-fluoro-4-pyridyl]-5-methyl-2-pyrimidin-2-yl-7,8-dihydro-5H-pyrido[4,3-d]pyrimidine]: the IC50 was determined as 18 nM.

`CC1c2cnc(-c3ncccn3)nc2CCN1c1cc(F)cc(NC2CCOCC2)n1` (stereo not drawn) [Example 49, 4-fluoro-6-(5-methyl-2-pyrimidin-2-yl-7,8-dihydro-5H-pyrido[4,3-d]pyrimidin-6-yl)-N-tetrahydropyran-4-yl-pyridin-2-amine] gave a concentration for half-maximal inhibition (IC50) of 56 nM.

Turning to `CC1c2cnc(-c3ncccn3)nc2CCN1c1cc(N2CCN(CC(=O)O)CC2)cc(F)n1` (stereo not drawn) [Example 94, 2-[4-[2-fluoro-6-(5-methyl-2-pyrimidin-2-yl-7,8-dihydro-5H-pyrido[4,3-d]pyrimidin-6-yl)-4-pyridyl]piperazin-1-yl]acetic acid], the IC50 came out at 8860 nM.

For the compound `CC1c2cnc(-c3ncccn3)nc2CCN1c1cc(F)cc(N2CCC(C(N)=O)CC2)n1` (stereo not drawn) [Example 55, 1-[4-fluoro-6-(5-methyl-2-pyrimidin-2-yl-7,8-dihydro-5H-pyrido[4,3-d]pyrimidin-6-yl)-2-pyridyl]piperidine-4-carboxamide], the half-inhibitory concentration (IC50) was 72 nM.

`CC1c2cnc(-c3ncccn3)nc2CCN1c1cc(F)cc(N2CCOC(C(N)=O)C2)n1` (stereo not drawn) [Example 47, 4-[4-fluoro-6-(5-methyl-2-pyrimidin-2-yl-7,8-dihydro-5H-pyrido[4,3-d]pyrimidin-6-yl)-2-pyridyl]morpholine-2-carboxamide] gave an IC50 of 33 nM.

`CC1c2cnc(-c3ncccn3)nc2CCN1c1cc(N2CCNC(C(=O)O)C2)cc(F)n1` (stereo not drawn) [Example 50, 4-[2-Fluoro-6-(5-methyl-2-pyrimidin-2-yl-7,8-dihydro-5H-pyrido[4,3-d]pyrimidin-6-yl)-4-pyridyl]piperazine-2-carboxylic acid] had a half-inhibitory concentration (IC50) of 1940 nM.

The compound `CC1c2cnc(-c3ncccn3)nc2CCN1c1cc(N2CC(C(=O)NS(C)(=O)=O)C2)cc(F)n1` (stereo not drawn) [Example 64, 1-[2-fluoro-6-(5-methyl-2-pyrimidin-2-yl-7,8-dihydro-5H-pyrido[4,3-d]pyrimidin-6-yl)-4-pyridyl]-N-methylsulfonyl-azetidine-3-carboxamide] showed a half-maximal inhibitory concentration (IC50) of 2380 nM.

On to `CC(=O)N1CCN(c2cc(F)cc(N3CCc4nc(-c5ccccn5)ncc4C3C)n2)CC1` (stereo not drawn) [Example 70, 1-[4-[4-fluoro-6-[5-methyl-2-(2-pyridyl)-7,8-dihydro-5H-pyrido[4,3-d]pyrimidin-6-yl]-2-pyridyl]piperazin-1-yl]ethanone], for which the 50% inhibitory concentration (IC50) came to 16 nM.

In turn, `CC1c2cnc(-c3ncccn3)nc2CCN1c1cc(N(CCCCC(N)=O)CC2CC2)cc(F)n1` (stereo not drawn) [Example 143, 5-[Cyclopropylmethyl-[2-fluoro-6-(5-methyl-2-pyrimidin-2-yl-7,8-dihydro-5H-pyrido[4,3-d]pyrimidin-6-yl)-4-pyridyl]amino]pentanamide] registered a 50% inhibitory concentration (IC50) of 176 nM.

For `CC1c2cnc(-c3ncccn3)nc2CCN1c1cc(N2CCC(C(=O)O)CC2)cc(F)n1` (stereo not drawn) [Example 52, 1-[2-fluoro-6-(5-methyl-2-pyrimidin-2-yl-7,8-dihydro-5H-pyrido[4,3-d]pyrimidin-6-yl)-4-pyridyl]piperidine-4-carboxylic acid], half-maximal inhibition (IC50) required 1040 nM.

Take `COC1CN(c2cc(F)cc(N3CCc4nc(-c5ncccn5)ncc4C3C)n2)C1` (stereo not drawn) [Example 111, 6-[4-fluoro-6-(3-methoxyazetidin-1-yl)-2-pyridyl]-5-methyl-2-pyrimidin-2-yl-7,8-dihydro-5H-pyrido[4,3-d]pyrimidine]: the IC50 was 26 nM.

Compound `CC1c2cnc(-c3ncccn3)nc2CCN1c1cc(N2CCOC(C(N)=O)C2)cc(F)n1` (stereo not drawn) [Example 46, 4-[2-Fluoro-6-(5-methyl-2-pyrimidin-2-yl-7,8-dihydro-5H-pyrido[4,3-d]pyrimidin-6-yl)-4-pyridyl]morpholine-2-carboxamide] showed an IC50 of 36 nM.

For the compound `CC(=O)N1CCN(c2cc(F)nc(N3CCc4nc(-c5ncccn5)ncc4C3C)c2)CC1` (stereo not drawn) [Example 16, 1-[4-[2-fluoro-6-(5-methyl-2-pyrimidin-2-yl-7,8-dihydro-5H-pyrido[4,3-d]pyrimidin-6-yl)-4-pyridyl]piperazin-1-yl]ethanone], 14 nM corresponded to half-maximal inhibition (IC50).

`CC1CCN(c2cc(F)nc(N3CCc4nc(-c5ncccn5)ncc4C3C)c2)C1=O` (stereo not drawn) [Example 152, 1-[2-Fluoro-6-(5-methyl-2-pyrimidin-2-yl-7,8-dihydro-5H-pyrido[4,3-d]pyrimidin-6-yl)-4-pyridyl]-3-methyl-pyrrolidin-2-one]: half-maximal inhibition (IC50) was put at 3 nM.

Take `CC1c2cnc(-c3ncccn3)nc2CCN1c1cc(F)cc(N2CCOC(CC(=O)O)C2)n1` (stereo not drawn) [Example 29, 2-[4-[4-fluoro-6-(5-methyl-2-pyrimidin-2-yl-7,8-dihydro-5H-pyrido[4,3-d]pyrimidin-6-yl)-2-pyridyl]morpholin-2-yl]acetic acid]: the 50% inhibitory concentration (IC50) was 722 nM.

`CC1CCN(c2cc(F)cc(N3CCc4nc(-c5ncccn5)ncc4C3C)n2)C1` (stereo not drawn) [Example 19, 6-[4-fluoro-6-(3-methylpyrrolidin-1-yl)-2-pyridyl]-5-methyl-2-pyrimidin-2-yl-7,8-dihydro-5H-pyrido[4,3-d]pyrimidine] had a half-maximal inhibitory concentration (IC50) of 11 nM.

In turn, `CC1c2cnc(-c3ncccn3)nc2CCN1c1cc(F)cc(N2CCOC(C(=O)O)C2)n1` (stereo not drawn) [Example 27, 4-[4-fluoro-6-(5-methyl-2-pyrimidin-2-yl-7,8-dihydro-5H-pyrido[4,3-d]pyrimidin-6-yl)-2-pyridyl]morpholine-2-carboxylic acid] displayed an IC50 of 3760 nM.

For `COC1CCN(c2cc(N3CCc4nc(-c5ncccn5)ncc4C3C)cc(F)n2)C1` (stereo not drawn) [Example 108, 6-[2-Fluoro-6-(3-methoxypyrrolidin-1-yl)-4-pyridyl]-5-methyl-2-pyrimidin-2-yl-7,8-dihydro-5H-pyrido[4,3-d]pyrimidine], half-maximal inhibition (IC50) required 13 nM.

For `CC(=O)N(C)c1cc(F)nc(N2CCc3nc(-c4ncccn4)ncc3C2C)c1` (stereo not drawn) [Example 154, N-[2-Fluoro-6-(5-methyl-2-pyrimidin-2-yl-7,8-dihydro-5H-pyrido[4,3-d]pyrimidin-6-yl)-4-pyridyl]-N-methyl-acetamide], the IC50 came to 69 nM.

The compound `CC1c2cnc(-c3ccccn3)nc2CCN1c1cc(N2CCN(S(C)(=O)=O)CC2)cc(F)n1` (stereo not drawn) [Example 71, 6-[6-fluoro-4-(4-methylsulfonylpiperazin-1-yl)-2-pyridyl]-5-methyl-2-(2-pyridyl)-7,8-dihydro-5H-pyrido[4,3-d]pyrimidine] had an IC50 of 8 nM.

Take `CC1c2cnc(-c3ncccn3)nc2CCN1c1cc(F)cc(N2CCC(F)(F)C2)n1` (stereo not drawn) [Example 23, 6-[6-(3,3-difluoropyrrolidin-1-yl)-4-fluoro-2-pyridyl]-5-methyl-2-pyrimidin-2-yl-7,8-dihydro-5H-pyrido[4,3-d]pyrimidine]: inhibition was half-maximal at 5 nM (IC50).

In turn, `CC1c2cnc(-c3ncccn3)nc2CCN1c1cc(N(C)S(=O)(=O)c2ccccc2)cc(F)n1` (stereo not drawn) [Example 161, N-[2-Fluoro-6-(5-methyl-2-pyrimidin-2-yl-7,8-dihydro-5H-pyrido[4,3-d]pyrimidin-6-yl)-4-pyridyl]-N-methyl-benzenesulfonamide] gave an IC50 of 5 nM.
